The text below walks through data of patent publication US12465050B2, “Compositions comprising a pyridine carboxylate herbicide and protoporphyrinogen oxidase (protox) inhibitor herbicides” (priority 2018, dated 2025).

Holding throughout (type): in vivo
Series [1] relates to Viola tricolor (wild pansy). Kind of series: Greenhouse postemergence herbicidal effect on VIOTR. The source says:
(§1) Greenhouse Trial Methodology—Evaluation of Postemergence Herbicidal Effect
(§2) Seeds of the desired test plant species were planted in a 90:10% v/v (volume/volume) mixture of PRO-MIX® BX (Premier Tech Horticulture, Quakertown, Pa., USA) and PROFILE® GREENS GRADE™ (Profile Products LLC, Buffalo Grove, Ill., USA) planting mixture, which typically has a pH of 5.2 to 6.2 and an organic matter content of at least 50 percent, in plastic pots with a surface area of 103.2 square centimeters (cm^2). In some aspects or embodiments, to help ensure good germination and healthy plants, a fungicide treatment and/or other chemical or physical treatment was applied. The plants were grown for 7-36 days (d) in a greenhouse with an approximate 14-hour (h) photoperiod which was maintained at about 23° C. during the day and 22° C. during the night. Nutrients and water were added on a regular basis and supplemental lighting was provided with overhead metal halide 1000-Watt lamps as necessary. The plants were employed for testing when they reached the second or third true leaf stage.
(§3) Emulsifiable concentrates of each of each pyridine carboxylate herbicide (Compound A or Compound B) were prepared at 100 grams acid equivalent per liter (g ae/L). The emulsifiable concentrates also included a safener, cloquintocet mexyl, at 120 grams active ingredient per liter (g ai/L). An aliquot of each emulsifiable concentrate was placed in a 25 mL glass vial and diluted with an aqueous mixture of 1.25% (v/v) ACTIROB® B esterified rapeseed oil (Bayer Crop Science, Research Triangle Park, N.C., USA) or MSO® Concentrate with LECI-TECH® methylated soybean oil (Loveland Products, Loveland, Colo., USA) to obtain concentrated stock solutions at the highest application rate for each herbicide, based upon a 12 milliliter (mL) application volume at a rate of 187 liters per hectare (L/ha). The concentrated stock solutions were further diluted with an aqueous mixture of 1.25% v/v ACTIROB® B or MSO® Concentrate with LECI-TECH® to obtain stock solutions at reduced application rates for each herbicide. Spray solutions of the herbicide combinations (Compound A or Compound B plus PROTOX inhibitor herbicide) were prepared by adding weighed amounts or aliquots of the PROTOX inhibitor herbicides to the stock solutions of Compound A or Compound B to form 12-mL spray solutions in two-way combinations.
(§4) The spray solutions were applied to the plant material with an overhead Mandel track sprayer equipped with 8002E nozzles calibrated to deliver 187 L/ha over an application area of 0.503 square meters (m^2) at a spray height of 18 inches (43 centimeters (cm)) above the average plant canopy. Control plants were sprayed in the same manner with the solvent blank. All pyridine carboxylate herbicide (component a) application rates are given as “g ae/ha” and all PROTOX inhibitor herbicide (component b) application rates are given as “g ai/ha.”
(§5) The treated plants and control plants were placed in a greenhouse as described above and watered by sub-irrigation to prevent wash-off of the test compounds. After 20-22 d, the condition of the test plants as compared with that of the control plants was determined visually and scored on a scale of 0 to 100 percent where 0 corresponds to no injury and 100 corresponds to complete kill.

Series [2] concerns Cirsium arvense (Canadian thistle). Kind of series: Greenhouse postemergence herbicidal effect on CIRAR.
Source text: as §1, §2, §3, §4, §5

The test system of a further series is Kochia scoparia (kochia). Kind of series: Greenhouse postemergence herbicidal effect on KCHSC.
Source text: as §1, §2, §3, §4, §5

Series [3] relates to Triticum aestivum (spring wheat). Kind of series: Greenhouse postemergence phytotoxicity on crop TRZAS.
Source text: as §1, §2, §3, §4, §5

The test system of series [4] is Polygonum convolvulus (wild buckwheat). Kind of series: Greenhouse postemergence herbicidal effect on POLCO.
Source text: as §1, §2, §3, §4, §5

Series [5] deals with Salsola kali (Russian thistle). Kind of series: Greenhouse postemergence herbicidal effect on SASKR.
Source text: as §1, §2, §3, §4, §5

In series [6] the test system is Hordeum vulgare (spring barley). Kind of series: Greenhouse postemergence phytotoxicity on crop HORVS.
Source text: as §1, §2, §3, §4, §5

Series [7] concerns Sinapis arvensis (wild mustard). Kind of series: Greenhouse postemergence herbicidal effect on SINAR.
Source text: as §1, §2, §3, §4, §5

Series [8] deals with Brassica napus (winter rape). Kind of series: Greenhouse postemergence herbicidal effect on BRSNW.
Source text: as §1, §2, §3, §4, §5

For series [9], the system named is Matricaria chamomilla (wild chamomile). Kind of series: Greenhouse postemergence herbicidal effect on MATCH.
Source text: as §1, §2, §3, §4, §5

For series [10], the system named is Lamium purpureum (purple deadnettle). Kind of series: Greenhouse postemergence herbicidal effect on LAMPU. The settings on record: Compound A 0, Oxyfluorfen 560 g/ha.
Source text: as §1, §2
as §3, with “combinations. […]” for “combinations.”
as §5

Series [11] relates to Capsella bursa-pastoris (shepherd's purse). Kind of series: Greenhouse postemergence herbicidal effect on CAPBP. Conditions: Compound A 0, Oxyfluorfen 560 g/ha.
Source text: as §1, §2
as §3, with “combinations. […]” for “combinations.”
as §5

The subject of series [12] is Cyanus segetum (cornflower). Kind of series: Greenhouse postemergence herbicidal effect on CENCY. The settings on record: Compound A 0, Oxyfluorfen 560 g/ha.
Source text: as §1, §2
as §3, with “combinations. […]” for “combinations.”
as §5

The subject of series [13] is Viola arvensis (field violet). Kind of series: Greenhouse postemergence herbicidal effect on VIOAR. Conditions: Compound A 0, Oxyfluorfen 560 g/ha.
Source text: as §1, §2
as §3, with “combinations. […]” for “combinations.”
as §5

The test system of series [14] is Stellaria media (chickweed). Kind of series: Greenhouse postemergence herbicidal effect on STEME. The settings on record: Compound A 0, Oxyfluorfen 560 g/ha.
Source text: as §1, §2
as §3, with “combinations. […]” for “combinations.”
as §5

Series [15] has as its system Matricaria inodora (scentless chamomile). Kind of series: Greenhouse postemergence herbicidal effect on MATIN. The settings on record: Compound A 0, Oxyfluorfen 560 g/ha.
Source text: as §1, §2
as §3, with “combinations. […]” for “combinations.”
as §5

Series [16] deals with Anthemis arvensis (corn chamomile). Kind of series: Greenhouse postemergence herbicidal effect on ANTAR. Conditions: Compound A 0, Oxyfluorfen 560 g/ha.
Source text: as §1, §2
as §3, with “combinations. […]” for “combinations.”
as §5

Series [17] relates to Matricaria discoidea (pineapple weed). Kind of series: Greenhouse postemergence herbicidal effect on MATMT. Conditions: Compound A 0, Oxyfluorfen 560 g/ha.
Source text: as §1, §2
as §3, with “combinations. […]” for “combinations.”
as §5

Series [18] deals with Veronica persica (Persian speedwell). Kind of series: Greenhouse postemergence herbicidal effect on VERPE. Conditions: Compound A 0, Oxyfluorfen 560 g/ha.
Source text: as §1, §2
as §3, with “combinations. […]” for “combinations.”
as §5

The subject of series [19] is Papaver rhoeas (common poppy). Kind of series: Greenhouse postemergence herbicidal effect on PAPRH. The settings on record: Compound A 0, Oxyfluorfen 560 g/ha.
Source text: as §1, §2
as §3, with “combinations. […]” for “combinations.”
as §5

Series [20] concerns Veronica hederifolia (ivy-leaved speedwell). Kind of series: Greenhouse postemergence herbicidal effect on VERHE. Conditions: Compound A 0, Oxyfluorfen 560 g/ha.
Source text: as §1, §2
as §3, with “combinations. […]” for “combinations.”
as §5

Series [21] concerns Papaver rhoeas (herbicide-resistant poppy). Kind of series: Greenhouse postemergence herbicidal effect on PAPRH-RES. The settings on record: Compound A 0, Oxyfluorfen 560 g/ha.
Source text: as §1, §2
as §3, with “combinations. […]” for “combinations.”
as §5

Series [22] relates to Triticum aestivum (winter wheat). Kind of series: Greenhouse postemergence phytotoxicity on crop TRZAW. The settings on record: Compound A 0, Oxyfluorfen 560 g/ha.
Source text: as §1, §2
as §3, with “combinations. […]” for “combinations.”
as §5

Series [23] deals with Hordeum vulgare (winter barley). Kind of series: Greenhouse postemergence phytotoxicity on crop HORVW. Conditions: Compound A 0, Oxyfluorfen 560 g/ha.
Source text: as §1, §2
as §3, with “combinations. […]” for “combinations.”
as §5

Series [24] concerns Brassica napus (spring rape). Kind of series: Greenhouse postemergence herbicidal effect on BRSNN.
Source text: as §1, §2, §3, §4, §5

Series [25] deals with Chenopodium album L. (common lambsquarters). Kind of series: Greenhouse postemergence herbicidal effect on CHEAL.
Source text: as §1, §2, §3, §4, §5

Series [26] has as its system Amaranthus retroflexus (pigweed). Kind of series: Greenhouse postemergence herbicidal effect on AMARE.
Source text: as §1, §2, §3, §4, §5

Series [27] concerns Rumex obtusifolius (broad-leaf dock). Kind of series: Greenhouse postemergence herbicidal effect on RUMOB. Conditions: Compound A 0, Saflufenacil 11.2 g/ha.
Source text: as §1, §2, §3, §4, §5

Series [28] deals with Setaria faberi (giant foxtail). Kind of series: Greenhouse postemergence herbicidal effect on SETFA.
Source text: as §1, §2, §3, §4, §5

Series [29] concerns Abutilon theophrasti (velvetleaf). Kind of series: Greenhouse postemergence herbicidal effect on ABUTH. The settings on record: Compound A 0, Saflufenacil 11.2 g/ha.
Source text: as §1, §2
(§6) Emulsifiable concentrates of each of each pyridine carboxylate herbicide (Compound A or Compound B) were prepared at 100 grams acid equivalent per liter (g ae/L). The emulsifiable concentrates also included a safener, cloquintocet mexyl, at 120 grams active ingredient per liter (g ai/L). […]
as §5

The test system of series [30] is Sorghum vulgare (sorghum). Kind of series: Greenhouse postemergence herbicidal effect on SORVU. The settings on record: Compound A 0, Saflufenacil 11.2 g/ha.
Source text: as §1, §2, §6, §5

Series [31] deals with Cyperus esculentus (nutsedge). Kind of series: Greenhouse postemergence herbicidal effect on CYPES. Conditions: Compound A 0, Saflufenacil 11.2 g/ha.
Source text: as §1, §2, §6, §5

Another series concerns Zea mays (maize). Kind of series: Greenhouse postemergence phytotoxicity on crop ZEAMX. The settings on record: Compound A 0, Saflufenacil 11.2 g/ha.
Source text: as §1, §2, §6, §5

Setting [32] is: Compound A 0, Oxyfluorfen 560 g/ha.
[33] abbreviates: Compound A 0, Pyraclonil 42.5 g/ha.
The mark [34] stands for this setting: Compound A 0, Pyraflufen-ethyl 6 g/ha.
Where [35] appears, read: Compound B 0, Saflufenacil 1 g/ha.
[36] abbreviates: Compound A 0, Saflufenacil 11.2 g/ha.

Turning to `CCOc1cc(Oc2ccc(C(F)(F)F)cc2Cl)ccc1[N+](=O)[O-]` [Oxyfluorfen, 2-chloro-1-(3-ethoxy-4-nitrophenoxy)-4-(trifluoromethyl)benzene, reference compound], the “% visual injury, Obs” value in [1] (setting [32]) is listed as 60%; in series [2] (setting [32]), 35%; in the series on Kochia scoparia (kochia) (setting [32]) it was 55%; in series [3] (setting [32]) it was 23%; in [4] (setting [32]) it was 80%; in [5] (setting [32]) it was 60%. Moreover, the “% visual injury, Obs” value in series [6] (setting [32]) was 70%; in series [7] (setting [32]), 20%; in [8] (setting [32]), 20%; in series [9] (setting [32]), 25%; in series [10], 10%; in series [11], 0%. Further, the “% visual injury, Obs” value turned out to be 15% in series [12]; 40% in series [13]; 0% in [14]; 0% in [15]; 5% in series [16]; 5% in series [17]. For the same compound, the “% visual injury, Obs” value turned out to be 20% in series [18]; 70% in series [19]; 5% in series [20]; 45% in series [21]; 20% in series [22]; 50% in series [23].
As to `C#CCN(C)c1c(C#N)cnn1-c1nn2c(c1Cl)CCCC2` [Pyraclonil, 1-(3-chloro-4,5,6,7-tetrahydropyrazolo[1,5-a]pyridin-2-yl)-5-[methyl-2-propynylamino]-1H-pyrazole-4-carbonitrile, reference compound], the “% visual injury, Obs” value was 23% in series [24] (setting [33]); 15% in the series on Kochia scoparia (kochia) (setting [33]); 3% in series [3] (setting [33]); 20% in series [4] (setting [33]); 78% in [5] (setting [33]); 28% in [6] (setting [33]). Also, the “% visual injury, Obs” value in [7] (setting [33]) and in [25] (setting [33]) was 15% in each case.
Regarding `CCOC(=O)COc1cc(-c2nn(C)c(OC(F)F)c2Cl)c(F)cc1Cl` [Pyraflufen-ethyl, ethyl 2-chloro-5-[4-chloro-5-(difluoromethoxy)-1-methyl-1H-pyrazol-3-yl]-4-fluorophenoxyacetate, reference compound], the “% visual injury, Obs” value in series [2] (setting [34]) came to 10%; in the series with Kochia scoparia (kochia) (setting [34]), 0%; in [26] (setting [34]) it was 18%; in series [3] (setting [34]), 0%; in series [4] (setting [34]), 0%; in series [5] (setting [34]), 5%. In addition, the “% visual injury, Obs” value is recorded as 0% in series [6] (setting [34]); 0% in series [7] (setting [34]); 5% in series [25] (setting [34]); 0% in series [8] (setting [34]); 0% in [9] (setting [34]).
Consider `CC(C)N(C)S(=O)(=O)NC(=O)c1cc(-n2c(=O)cc(C(F)(F)F)n(C)c2=O)c(F)cc1Cl` [Saflufenacil, 2-chloro-5-[3,6-dihydro-3-methyl-2,6-dioxo-4-(trifluoromethyl)-1(2H)-pyrimidinyl]-4-fluoro-N-[[methyl(1-methylethyl)-amino]sulfonyl]benzamide, reference compound], for which the “% visual injury, Obs” value in series [27] came out at 100%; in series [1] (setting [35]) it was 55%; in series [2] (setting [35]), 80%; in series [24] (setting [36]), 90%; in [28] (setting [36]), 53%; in series [28] (setting [35]) it was 13%. The “% visual injury, Obs” value in [29] is 98%; in series [30] it was 33%; in [31] it was 28%; in series [26] (setting [36]) it was 100%; in [3] (setting [36]) it was 10%; in the series on Zea mays (maize), 45%.
